Assay results published in ChEMBL document CHEMBL1201862, “PubChem BioAssay data set” (2004).
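96-well plates; 48 h exposure; 5 concentrations. Endpoints by linear interpolation between flanking doses. Not reached: highest tested concentration assigned. GI50 is the concentration that inhibits growth by half.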 Activity calls are given as the source filed them. Rule as the data show it: active = GI50 up to about 1.1 µM and inactive = higher.

Assays:
Assay in all cases: NCI tumour cell line growth inhibition, 48 h
[1] = system: HOP-62
[2] = system: SK-OV-3
[3] = system: U-251
[4] = system: UO-31
[5] = system: NCI-H23
[6] = system: COLO 205
[7] = system: OVCAR-4
[8] = system: DLD-1
[9] = system: KM12
[10] = system: CAKI-1
[11] = system: SR
[12] = system: HT-29
[13] = system: SNB-75
[14] = system: EKVX
[15] = system: HCT-116
[16] = system: HCC 2998
[17] = system: SF-295
[18] = system: SF-268
[19] = system: M19-MEL
[20] = system: 786-0
[21] = system: SK-MEL-2
[22] = system: LXFL 529
[23] = system: NCI-H226
[24] = system: SW-620
[25] = system: SN12C
[26] = system: SNB-78
[27] = system: OVCAR-5
[28] = system: OVCAR-3
[29] = system: HCT-15
[30] = system: NCI-H460
[31] = system: XF498
[32] = system: HOP-18
[33] = system: KM-20L2
[34] = system: RXF 631
[35] = system: SNB-19
[36] = system: M14
[37] = system: IGROV-1
[38] = system: SF-539
[39] = system: CCRF-CEM
[40] = system: OVCAR-8
[41] = system: UACC-62
[42] = system: RXF 393
[43] = system: ACHN
[44] = system: A549
[45] = system: LOX IMVI
[46] = system: NCI-H522
[47] = system: SK-MEL-28
[48] = system: UACC-257
[49] = system: SK-MEL-5
[50] = system: K562
[51] = system: HL-60
[52] = system: RPMI-8226
[53] = system: MOLT-4
[54] = system: Malme-3M
[55] = system: TK-10
[56] = system: HOP-92
[57] = system: A498
[58] = system: DMS-273
[59] = system: DMS-114

In the case of `Cc1cc(C)c(-c2noc(-c3ccc(Cl)cc3)c2C2=NCCN2)c(C)c1`, the GI50 [1] is reported as 22.1 µM (inactive), the GI50 [2] is reported as 13.7 µM (inactive) and the GI50 [3] is reported as 15.7 µM (inactive). The GI50 [4] was 6.38 µM (inactive), the GI50 [5] was 17.4 µM (inactive) and the GI50 [6] was 16.4 µM (inactive). The GI50 [7] was 78.9 µM (inactive), the GI50 [8] was 22.4 µM (inactive) and the GI50 [9] was 21.6 µM (inactive). For the same molecule, the GI50 [10] was 76.4 µM (inactive), the GI50 [11] was 16.4 µM (inactive) and the GI50 [12] was 13.3 µM (inactive). The GI50 [13] was 17.1 µM (inactive), the GI50 [14] was 22.9 µM (inactive) and the GI50 [15] was 12.1 µM (inactive). For the same molecule, the GI50 [16] was 17.8 µM (inactive), the GI50 [17] was 14 µM (inactive) and the GI50 [18] was 17.3 µM (inactive). For the same molecule, the GI50 [19] was 35.8 µM (inactive), the GI50 [20] was 15.3 µM (inactive) and the GI50 [21] was 22.6 µM (inactive). For the same molecule, the GI50 [22] was 19.9 µM (inactive), the GI50 [23] was 23.8 µM (inactive) and the GI50 [24] was 32.4 µM (inactive). For the same molecule, the GI50 [25] was 20.3 µM (inactive), the GI50 [26] was 20.1 µM (inactive) and the GI50 [27] was 32.1 µM (inactive). The GI50 [28] was 21 µM (inactive), the GI50 [29] was 22.2 µM and the GI50 [30] was 13.8 µM (inactive). For the same molecule, the GI50 [31] was 21.4 µM (inactive), the GI50 [32] was 1.17 µM (inactive) and the GI50 [33] was 22.2 µM (inactive). For the same molecule, the GI50 [34] was 43.3 µM (inactive), the GI50 [35] was 28.1 µM (inactive) and the GI50 [36] was 12.2 µM (inactive). For the same molecule, the GI50 [37] was 22.2 µM (inactive), the GI50 [38] was 16.8 µM (inactive) and the GI50 [39] was 20.7 µM (inactive). The GI50 [40] was > 10 µM (inactive), the GI50 [41] was 16.8 µM (inactive) and the GI50 [42] was 14.2 µM (inactive). For the same molecule, the GI50 [43] was 23.1 µM (inactive), the GI50 [44] was 32.4 µM (inactive) and the GI50 [45] was 20.3 µM (inactive). For the same molecule, the GI50 [46] was > 10 µM (inactive), the GI50 [47] was 17.7 µM (inactive) and the GI50 [48] was 17.5 µM (inactive). For the same molecule, the GI50 [49] was 11.7 µM (inactive), the GI50 [50] was 14.8 µM (inactive) and the GI50 [51] was 14.4 µM (inactive). For the same molecule, the GI50 [52] was 17.9 µM (inactive), the GI50 [53] was 16.6 µM (inactive) and the GI50 [54] was 20.4 µM (inactive).

`CN1CCC(SC2Cc3cc(Cl)ccc3Sc3ccccc32)CC1` (configuration not stated) was tested, and the GI50 [55] was 13 µM (inactive), the GI50 [1] was > 10 µM (inactive) and the GI50 [2] was 15.8 µM (inactive). For the same molecule, the GI50 [3] was 13.6 µM (inactive), the GI50 [4] was 3.86 µM (inactive) and the GI50 [5] was 14.1 µM (inactive). The GI50 [6] was 12.9 µM (inactive), the GI50 [7] was 14.7 µM (inactive) and the GI50 [8] was 14 µM (inactive). For the same molecule, the GI50 [9] was 10.3 µM (inactive), the GI50 [56] was 11.7 µM (inactive) and the GI50 [10] was 10.7 µM (inactive). For the same molecule, the GI50 [11] was 8.18 µM (inactive), the GI50 [12] was 4.24 µM (inactive) and the GI50 [13] was 8.79 µM (inactive). The GI50 [14] was 18.5 µM (inactive), the GI50 [15] was 10.4 µM (inactive) and the GI50 [16] was 8.93 µM (inactive). For the same molecule, the GI50 [57] was 16.1 µM (inactive), the GI50 [17] was 15.9 µM (inactive) and the GI50 [18] was 11.8 µM (inactive). The GI50 [19] was 12.7 µM (inactive), the GI50 [20] was 13 µM (inactive) and the GI50 [22] was 13.1 µM (inactive). For the same molecule, the GI50 [23] was 15.1 µM (inactive), the GI50 [24] was 13.6 µM (inactive) and the GI50 [58] was 12.5 µM (inactive). For the same molecule, the GI50 [25] was 14.6 µM (inactive), the GI50 [27] was 16.7 µM (inactive) and the GI50 [28] was 13.6 µM (inactive). For the same molecule, the GI50 [29] was 15.7 µM, the GI50 [30] was 12.2 µM (inactive) and the GI50 [31] was 16 µM (inactive). The GI50 [32] was 13.5 µM (inactive), the GI50 [33] was 5.27 µM (inactive) and the GI50 [34] was 13.3 µM (inactive). For the same molecule, the GI50 [35] was 15.6 µM (inactive), the GI50 [36] was 4 µM (inactive) and the GI50 [37] was 14.7 µM (inactive). The GI50 [38] was 16.4 µM (inactive), the GI50 [40] was 17.3 µM (inactive) and the GI50 [41] was 3.33 µM (inactive). The GI50 [42] was 3.66 µM (inactive), the GI50 [43] was 14.6 µM (inactive) and the GI50 [44] was 15.3 µM (inactive). The GI50 [45] was 11.5 µM (inactive), the GI50 [46] was 13.9 µM (inactive) and the GI50 [47] was 2.12 µM (inactive). For the same molecule, the GI50 [48] was 7.96 µM (inactive), the GI50 [49] was 13.5 µM (inactive) and the GI50 [50] was 5.04 µM (inactive). The GI50 [51] was 4.15 µM (inactive), the GI50 [52] was 7.29 µM (inactive) and the GI50 [53] was 4.24 µM (inactive). For the same molecule, the GI50 [54] was 14.2 µM (inactive).

`CN/C=C(\C(=O)c1ccc(OC)c(OC)c1)c1ccc(OC)cc1` was tested, and the GI50 [55] was 17 µM (inactive), the GI50 [1] was 24.7 µM (inactive) and the GI50 [2] was 45.9 µM (inactive). The GI50 [3] was 9.29 µM (inactive), the GI50 [4] was 12.2 µM (inactive) and the GI50 [5] was 30.3 µM (inactive). The GI50 [6] was 17.8 µM (inactive), the GI50 [7] was 24.5 µM (inactive) and the GI50 [8] was 15.6 µM (inactive). For the same molecule, the GI50 [9] was 12.6 µM (inactive), the GI50 [11] was 16.3 µM (inactive) and the GI50 [12] was 16.3 µM (inactive). The GI50 [13] was 30.1 µM (inactive), the GI50 [14] was 27.4 µM (inactive) and the GI50 [15] was 4.06 µM (inactive). For the same molecule, the GI50 [16] was > 10 µM (inactive), the GI50 [57] was 13.3 µM (inactive) and the GI50 [17] was 40.1 µM (inactive). For the same molecule, the GI50 [18] was 24.2 µM (inactive), the GI50 [19] was 17.1 µM (inactive) and the GI50 [20] was 11.4 µM (inactive). For the same molecule, the GI50 [21] was 15.7 µM (inactive), the GI50 [22] was 16 µM (inactive) and the GI50 [23] was 11.3 µM (inactive). The GI50 [24] was 17.3 µM (inactive), the GI50 [58] was 7.33 µM (inactive) and the GI50 [25] was 15.3 µM (inactive). For the same molecule, the GI50 [29] was 13.1 µM, the GI50 [30] was 19.2 µM (inactive) and the GI50 [31] was 18.5 µM (inactive). For the same molecule, the GI50 [32] was < 0.01 µM (active), the GI50 [34] was 14.3 µM (inactive) and the GI50 [35] was 17.5 µM (inactive). The GI50 [36] was 18.7 µM (inactive), the GI50 [37] was 27.4 µM (inactive) and the GI50 [38] was 1.25 µM (inactive). The GI50 [39] was 3.85 µM (inactive), the GI50 [40] was 15 µM (inactive) and the GI50 [41] was 16.4 µM (inactive). The GI50 [42] was 14 µM (inactive), the GI50 [43] was 22 µM (inactive) and the GI50 [44] was 34.6 µM (inactive). For the same molecule, the GI50 [45] was 14.2 µM (inactive), the GI50 [46] was 17 µM (inactive) and the GI50 [47] was 19.5 µM (inactive). The GI50 [48] was 10.7 µM (inactive), the GI50 [49] was 17.4 µM (inactive) and the GI50 [59] was 18.6 µM (inactive). For the same molecule, the GI50 [50] was 6.43 µM (inactive), the GI50 [51] was 11.3 µM (inactive) and the GI50 [52] was 3.52 µM (inactive). For the same molecule, the GI50 [53] was 19.9 µM (inactive) and the GI50 [54] was > 10 µM (inactive).
